For assay [1], the target named is T1, HDAC8 recombinant enzyme (Homo sapiens, UniProt Q9BY41).
T1 sequence (Q9BY41 1-377): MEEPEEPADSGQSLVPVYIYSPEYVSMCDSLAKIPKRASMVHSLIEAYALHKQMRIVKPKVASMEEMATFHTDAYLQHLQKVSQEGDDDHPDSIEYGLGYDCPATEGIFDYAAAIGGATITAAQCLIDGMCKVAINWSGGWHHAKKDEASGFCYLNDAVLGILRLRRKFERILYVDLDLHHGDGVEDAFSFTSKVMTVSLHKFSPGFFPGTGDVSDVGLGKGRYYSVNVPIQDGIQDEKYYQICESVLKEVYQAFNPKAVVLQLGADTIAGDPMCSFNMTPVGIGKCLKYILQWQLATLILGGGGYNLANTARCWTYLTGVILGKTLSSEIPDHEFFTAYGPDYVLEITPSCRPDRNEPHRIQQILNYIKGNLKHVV
Put plainly: In-vitro human HDAC8 assay (Boc-Lys-(TFa)-AMC substrate). The assay is classed as biochemical. To be noted: read-out: HDAC Inhibition IC50 HDAC 8.

In assay [2] the test system is α-tubulin acetylation (marker of reduced HDAC6 activity). Put plainly: Immunoblot, acetylated α-tubulin in HL60 cells. The assay is classed as cell-based. (In general: A western blot detects proteins with antibodies after separation by electrophoresis.)
The target in assay [3] is T2, HDAC1 (Homo sapiens, UniProt Q13547). The assay can be described thus: In-vitro human HDAC1 fluorogenic inhibition assay (ZMAL substrate). It counts as biochemical. To be noted: fluorogenic assay; n≥2, each in duplicate wells; read-out: Target Inhibition IC50 HDAC1.
T2 sequence (Q13547 whole entry): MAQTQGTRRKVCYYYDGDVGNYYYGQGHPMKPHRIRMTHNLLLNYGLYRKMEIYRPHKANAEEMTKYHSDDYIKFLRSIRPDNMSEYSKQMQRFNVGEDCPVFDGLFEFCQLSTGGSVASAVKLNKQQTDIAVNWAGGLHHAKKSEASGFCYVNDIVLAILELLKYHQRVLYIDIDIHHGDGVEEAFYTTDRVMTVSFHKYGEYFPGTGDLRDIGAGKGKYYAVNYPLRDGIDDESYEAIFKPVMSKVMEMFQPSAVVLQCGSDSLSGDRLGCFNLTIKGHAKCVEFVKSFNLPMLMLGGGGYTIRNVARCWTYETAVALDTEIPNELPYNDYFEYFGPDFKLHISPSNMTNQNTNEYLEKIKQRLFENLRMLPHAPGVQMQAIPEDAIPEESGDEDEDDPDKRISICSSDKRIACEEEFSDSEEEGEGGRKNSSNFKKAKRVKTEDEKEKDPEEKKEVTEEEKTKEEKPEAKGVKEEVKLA
The target of assay [4] is T3, HDAC6 (Homo sapiens, UniProt Q9UBN7).
T3 sequence (Q9UBN7 1-1215): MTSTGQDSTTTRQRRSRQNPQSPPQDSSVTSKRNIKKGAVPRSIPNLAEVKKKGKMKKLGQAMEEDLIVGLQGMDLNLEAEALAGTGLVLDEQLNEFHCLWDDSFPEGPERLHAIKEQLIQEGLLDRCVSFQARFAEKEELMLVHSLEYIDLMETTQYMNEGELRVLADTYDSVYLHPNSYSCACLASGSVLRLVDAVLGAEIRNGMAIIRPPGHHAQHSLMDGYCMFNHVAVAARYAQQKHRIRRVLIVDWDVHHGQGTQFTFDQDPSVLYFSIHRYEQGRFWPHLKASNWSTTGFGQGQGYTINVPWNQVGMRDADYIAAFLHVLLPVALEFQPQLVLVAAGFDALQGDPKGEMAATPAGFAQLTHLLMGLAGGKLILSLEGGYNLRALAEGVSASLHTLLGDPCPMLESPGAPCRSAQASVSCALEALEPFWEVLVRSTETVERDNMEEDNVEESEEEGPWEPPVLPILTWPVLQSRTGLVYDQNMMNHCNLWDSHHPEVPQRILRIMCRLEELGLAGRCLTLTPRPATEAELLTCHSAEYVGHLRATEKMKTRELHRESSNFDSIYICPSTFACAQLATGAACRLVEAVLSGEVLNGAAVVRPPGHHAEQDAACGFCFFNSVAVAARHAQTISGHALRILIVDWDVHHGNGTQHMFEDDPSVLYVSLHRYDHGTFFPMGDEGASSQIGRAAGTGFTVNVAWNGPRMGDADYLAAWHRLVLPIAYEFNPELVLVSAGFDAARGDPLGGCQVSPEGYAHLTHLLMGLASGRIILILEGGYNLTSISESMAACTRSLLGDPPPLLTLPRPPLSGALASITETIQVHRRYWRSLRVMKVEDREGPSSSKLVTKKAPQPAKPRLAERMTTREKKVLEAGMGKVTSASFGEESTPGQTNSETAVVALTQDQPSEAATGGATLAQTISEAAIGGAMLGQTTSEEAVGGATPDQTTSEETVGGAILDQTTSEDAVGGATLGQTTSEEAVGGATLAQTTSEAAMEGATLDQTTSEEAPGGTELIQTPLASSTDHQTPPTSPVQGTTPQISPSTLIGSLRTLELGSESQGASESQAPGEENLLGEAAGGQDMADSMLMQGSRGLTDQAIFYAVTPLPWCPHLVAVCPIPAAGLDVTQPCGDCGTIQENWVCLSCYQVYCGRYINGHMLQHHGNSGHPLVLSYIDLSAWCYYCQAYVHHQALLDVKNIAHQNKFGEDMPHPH
Put plainly: In-vitro human HDAC6 fluorogenic inhibition assay (ZMAL substrate). The assay is classed as biochemical. To be noted: fluorogenic assay; n≥2, each in duplicate wells; read-out: Target Inhibition IC50 HDAC6.

The test system of assay [5] is histone H3 acetylation (marker of reduced HDAC1-3 activity). The assay can be described thus: Immunoblot, acetyl histone H3 in HL60 cells. The assay is classed as cell-based.
Assay [6] deals with human recombinant HDAC2 (Homo sapiens, UniProt Q92769). The assay can be described thus: In-vitro human HDAC2 fluorogenic inhibition assay (ZMAL substrate). It counts as biochemical. Particulars: n≥2, each in duplicate wells; read-out: HDAC Inhibition IC50 HDAC 2.
Sequence of human recombinant HDAC2 (Q92769 whole entry): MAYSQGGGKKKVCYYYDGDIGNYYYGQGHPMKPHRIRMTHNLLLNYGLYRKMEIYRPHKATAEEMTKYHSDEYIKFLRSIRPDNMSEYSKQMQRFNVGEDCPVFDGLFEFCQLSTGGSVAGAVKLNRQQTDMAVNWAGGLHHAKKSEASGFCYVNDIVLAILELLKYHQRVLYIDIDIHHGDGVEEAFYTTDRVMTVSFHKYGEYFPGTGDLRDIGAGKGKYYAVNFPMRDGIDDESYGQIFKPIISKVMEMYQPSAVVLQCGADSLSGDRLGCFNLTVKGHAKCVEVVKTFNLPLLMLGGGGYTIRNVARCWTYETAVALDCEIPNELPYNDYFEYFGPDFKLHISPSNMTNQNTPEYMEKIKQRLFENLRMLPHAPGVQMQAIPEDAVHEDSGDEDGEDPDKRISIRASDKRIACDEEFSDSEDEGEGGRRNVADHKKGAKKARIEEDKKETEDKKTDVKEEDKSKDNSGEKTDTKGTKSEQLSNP
The target of assay [7] is human recombinant HDAC3 (Homo sapiens, UniProt O15379). The assay can be described thus: In-vitro human HDAC3 fluorogenic inhibition assay (ZMAL substrate). It counts as biochemical. To be noted: n≥2, each in duplicate wells; read-out: HDAC Inhibition IC50 HDAC 3.
Sequence of human recombinant HDAC3 (O15379 whole entry): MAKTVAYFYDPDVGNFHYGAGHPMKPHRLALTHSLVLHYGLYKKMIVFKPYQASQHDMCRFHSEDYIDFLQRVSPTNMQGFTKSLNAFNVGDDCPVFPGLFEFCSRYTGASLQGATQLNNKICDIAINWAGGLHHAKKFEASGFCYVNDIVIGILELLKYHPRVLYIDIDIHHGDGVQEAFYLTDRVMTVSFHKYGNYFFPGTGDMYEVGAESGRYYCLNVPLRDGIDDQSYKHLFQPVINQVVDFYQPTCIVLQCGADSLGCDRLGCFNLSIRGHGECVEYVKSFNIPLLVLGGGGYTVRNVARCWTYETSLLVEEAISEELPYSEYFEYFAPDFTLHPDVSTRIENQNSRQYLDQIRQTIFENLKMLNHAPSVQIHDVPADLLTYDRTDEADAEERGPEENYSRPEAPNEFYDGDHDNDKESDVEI
Sequence of human recombinant HDAC3 (Q9Y618 395-489 partner limits assumed): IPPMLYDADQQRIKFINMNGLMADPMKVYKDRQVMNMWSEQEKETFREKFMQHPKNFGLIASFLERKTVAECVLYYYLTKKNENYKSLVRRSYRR
For assay [8], the target named is T3, HDAC6. Put plainly: Immunoblot, HDAC6 degradation in HL60 cells. It counts as cell-based. Particulars: 0.1 μM, 1 μM and 10 μM, 48 hours.
Assay [9] has as its target T2, HDAC1. Put plainly: Immunoblot, HDAC1 degradation in HL60 cells. The assay is classed as cell-based. To be noted: 0.1 μM, 1 μM and 10 μM, 48 hours.

Each structure is given as a SMILES string.

For orientation: IC50 means the midpoint of a concentration-inhibition curve.

In the case of `O=C(CCCCCCNC(=O)c1ccc(NC(=O)COCCOCCNC(=O)COc2cccc3c2C(=O)N(C2CCC(=O)NC2=O)C3=O)cc1)NO` (stereo not drawn) [PROTAC 4], the IC50 turned out to be 3420 ± 320 nM in [1]; 174 ± 9 nM in assay [3]; 27 nM in assay [4]; 248 ± 49 nM in assay [6]; 159 ± 31 nM in assay [7]. Moreover, the “acetylation of α-tubulin” value in [2] was “significant hyperacetylation”. Besides, the “acetylation of histone H3” value in assay [5] is “significant hyperacetylation”. Besides, the “HDAC6 degradation (Western blot)” value in assay [8] was “able to degrade especially HDAC6”. The “HDAC1 degradation (Western blot)” value in assay [9] is on record as “also HDAC1 in a concentration dependent manner”.

The values above are taken from PMC7756583, “Hydroxamic Acids Immobilized on Resins (HAIRs): Synthesis of Dual‐Targeting HDAC Inhibitors and HDAC Degraders (PROTACs)” (Angewandte Chemie (International Ed. in English), 2020).
